According to ChEMBL document CHEMBL5729144, “1-cyano-pyrrolidine derivatives as DUB inhibitors” (2022):

Biological target: T1, Ubiquitin carboxyl-terminal hydrolase 30 (Homo sapiens, UniProt Q70CQ3)
T1 sequence (Q70CQ3 whole entry): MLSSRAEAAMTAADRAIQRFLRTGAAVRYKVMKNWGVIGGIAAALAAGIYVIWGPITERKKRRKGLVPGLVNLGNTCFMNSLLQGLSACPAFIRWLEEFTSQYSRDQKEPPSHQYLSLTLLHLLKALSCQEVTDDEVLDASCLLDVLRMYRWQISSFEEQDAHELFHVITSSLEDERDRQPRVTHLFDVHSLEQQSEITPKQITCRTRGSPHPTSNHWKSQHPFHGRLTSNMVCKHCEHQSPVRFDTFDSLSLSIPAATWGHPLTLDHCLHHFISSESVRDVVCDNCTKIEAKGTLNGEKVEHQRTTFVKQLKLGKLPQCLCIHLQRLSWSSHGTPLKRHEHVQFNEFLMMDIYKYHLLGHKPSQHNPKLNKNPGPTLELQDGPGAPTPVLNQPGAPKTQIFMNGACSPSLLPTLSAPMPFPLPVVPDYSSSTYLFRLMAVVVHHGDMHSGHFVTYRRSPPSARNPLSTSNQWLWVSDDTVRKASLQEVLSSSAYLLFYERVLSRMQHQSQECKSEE
Assay: A typical 8-point dilution series would be 100, 30, 10, 3, 1, 0.3, 0.1, 0.03 μM final. Reactions were performed in duplicate in black 384 well plates (small volume, Greiner 784076) in a final reaction volume of 21 μl. Either 1 μl of 50% DMSO or diluted compound was added to the plate. USP30 was diluted in reaction buffer (40 mM Tris, pH 7.5, 0.005% Tween 20, 0.5 mg/ml BSA, 5 mM beta-mercaptoethanol) to the equivalent of 0.05 μl/well and 10 μl of diluted USP30 was added to the compound. Enzyme and compound were incubated for 30 min at room temp. Reactions were initiated by the addition of 50 nM of TAMRA labelled peptide linked to ubiquitin via an iso-peptide bond as fluorescence polarisation substrate. Reactions were read immediately after addition of substrate and following a 2 h incubation at room temperature. Readings were performed on a Pherastar Plus (BMG Labtech). λ Excitation 540 nm; λ Emission 590 nm.

IC50 [nM] | Compound
< 100 | N#Cc1cccc(-c2cccc(-c3nc(C4CCCN4C#N)no3)c2)c1F (centres undefined)
< 100 | N#Cc1ccc(-c2cccc(-c3nc(C4CCCN4C#N)no3)c2)s1 (centres undefined)
< 100 | N#CN1CCCC1c1noc(-c2cccc(-c3cccc([N+](=O)[O-])c3)c2)n1 (centres undefined)
< 100 | N#Cc1cccc(-c2cc(-c3nc([C@@H]4CCCN4C#N)no3)ccn2)c1
